Reference: patent US20260271978A1, “USE OF FATTY ACIDS TO MODIFY FLAVOR” (Firmenich Incorporated, priority 2023, published 2026)

Tests used:
[1] = Sensory panel rating of fava bean protein solution at 6% with fatty acid at 400 ppm; details: 400 ppm in fava bean protein, 6 wt% in water, no sugar; mean of 18 panelists, scale 0 to 5
Protocol: (§1) Liquid solutions of fava bean protein were prepared (6 percent by weight in water) without sugar added. Control and test samples were prepared. To the test sample 10-undecenoic acid was added at a concentration of 400 ppm. The control and test samples were evaluated by 18 sensory panelists to rate various characteristics of the control sample and the test sample on a scale from 0 to 5.

[2] = Sensory panel rating of chickpea protein solution at 6% with fatty acid at 700 ppm; details: 700 ppm in chickpea protein, 6 wt% in water, no sugar; mean of 18 panelists, scale 0 to 5
Protocol: as §1, with “xchickpea” for “fava bean”, “700” for “400”

[3] = Sensory panel rating of pea protein solution at 3% with fatty acid at 700 ppm; details: 700 ppm in pea protein, 3 wt% in water, no sugar; mean of eight panelists, scale 0 to 5
Protocol: as §1, with “pea” for “fava bean”, “(3” for “(6”, “700” for “400”, “eight” for “18”

[4] = Sensory panel rating of oat/pea protein blend solution at 3% with fatty acid at 400 ppm; details: 400 ppm in oat/pea protein blend (1:14 w/w), about 3 wt% in water, no sugar; mean of eight panelists, scale 0 to 5
Protocol: as §1, with “a blend of oat and pea” for “fava bean”, “protein (1:14 w/w)” for “protein”, “(about 3” for “(6”, “eight” for “18”

[5] = Sensory panel rating of oat/pea protein blend solution at 6% with fatty acid at 400 ppm; details: 400 ppm in oat/pea protein blend (1:28 w/w), about 6 wt% in water, no sugar; mean of eight panelists, scale 0 to 5
Protocol: as §1, with “a blend of oat and pea” for “fava bean”, “protein (1:28 w/w)” for “protein”, “(about 6” for “(6”, “eight” for “18”

[6] = Sensory panel rating of pea protein solution at 3% with fatty acid at 1000 ppm; details: 1000 ppm in pea protein, 3 wt% in water, no sugar; mean of eight panelists, scale 0 to 5
Protocol: as §1, with “pea” for “fava bean”, “(3” for “(6”, “1000” for “400”, “eight” for “18”

Q: With `C=CCCCCCCCCC(=O)O` [10-undecenoic acid, Undec-10-enoic acid] as the compound, how does the Astringent [1] read?
A: 3.2

Q: And the Bitter [1]?
A: 2.4

Q: What about the “Cereal Note” value [1] of the same compound?
A: 2.3

Q: What about the Creaminess [1] of the same compound?
A: 1.2

Q: And the Fattiness [1]?
A: 1.3

Q: And the “Green/Vegetal Note” value [1]?
A: 2.7

Q: And the Mouthcoating [1]?
A: 1.8

Q: What about the Sweet [1] of the same compound?
A: 2.3

Q: What about the Thickness [1] of the same compound?
A: 1.2

Q: What about the Astringent [2] of the same compound?
A: 2.4

Q: And the Bitter [2]?
A: 2.1

Q: What about the “Cereal Note” value [2] of the same compound?
A: 2.7

Q: What about the Creaminess [2] of the same compound?
A: 2.3

Q: What about the Fattiness [2] of the same compound?
A: 1.9

Q: What about the “Green/Vegetal Note” value [2] of the same compound?
A: 2.8

Q: And the Mouthcoating [2]?
A: 2.4

Q: And the Sweet [2]?
A: 2.8

Q: And the Thickness [2]?
A: 1.6

Q: What about the Astringent [3] of the same compound?
A: 2.6

Q: And the Bitter [3]?
A: 2.1

Q: What about the “Cereal Note” value [3] of the same compound?
A: 2.4

Q: And the Creaminess [3]?
A: 1.8

Q: What about the Fattiness [3] of the same compound?
A: 1.9

Q: And the “Green/Vegetal Note” value [3]?
A: 2.4

Q: And the Mouthcoating [3]?
A: 2.3

Q: And the Sweet [3]?
A: 3.1

Q: What about the Thickness [3] of the same compound?
A: 2.0

Q: What about the Astringent [4] of the same compound?
A: 1.8

Q: And the Bitter [4]?
A: 1.7

Q: And the “Cereal Note” value [4]?
A: 2.5

Q: What about the Creaminess [4] of the same compound?
A: 1.6

Q: What about the Fattiness [4] of the same compound?
A: 1.4

Q: What about the “Green/Vegetal Note” value [4] of the same compound?
A: 2.1

Q: And the Mouthcoating [4]?
A: 2.0

Q: What about the Sweet [4] of the same compound?
A: 3.6

Q: And the Thickness [4]?
A: 1.9

Q: And the Astringent [5]?
A: 1.8

Q: And the Bitter [5]?
A: 1.8

Q: What about the “Cereal Note” value [5] of the same compound?
A: 2.8

Q: What about the Creaminess [5] of the same compound?
A: 2.4

Q: What about the Fattiness [5] of the same compound?
A: 2.3

Q: And the “Green/Vegetal Note” value [5]?
A: 2.3

Q: What about the Mouthcoating [5] of the same compound?
A: 3.3

Q: What about the Sweet [5] of the same compound?
A: 3.1

Q: What about the Thickness [5] of the same compound?
A: 2.9

Q: What about the Astringent [6] of the same compound?
A: 2.1

Q: What about the Bitter [6] of the same compound?
A: 1.7

Q: What about the “Cereal Note” value [6] of the same compound?
A: 2.7

Q: What about the Creaminess [6] of the same compound?
A: 2.1

Q: What about the Fattiness [6] of the same compound?
A: 2.0

Q: What about the “Green/Vegetal Note” value [6] of the same compound?
A: 2.0

Q: What about the Mouthcoating [6] of the same compound?
A: 2.9

Q: And the Sweet [6]?
A: 3.4

Q: And the Thickness [6]?
A: 2.1
